Data taken from patent publication US12077503B2, “Substituted cyclic amides and their use as herbicides” (FMC CORPORATION, priority 2015, dated 2024).

Legend:
Assay type in all cases: in vivo
[1] = system: pigweed (Amaranthus retroflexus); experiment: Test A preemergence; details: Amaranthus retroflexus, pre-emergence, 240 h; for pest or weed control at 125 g/ha: 125 g ai/ha, Preemergence, visual injury rating after approximately 10 d, read-out: Pigweed plant response rating (0 to 100 scale, 0 is no effect, 100 is complete control); for pest or weed control at 500 g/ha: 500 g ai/ha, preemergence, visual injury rating about 10 d after treatment, 0 to 100 scale (0 no effect, 100 complete control), read-out: Pigweed plant response rating
[2] = system: ryegrass, Italian (Italian ryegrass, Lolium multiflorum); experiment: Test A preemergence; details: Lolium multiflorum, pre-emergence, 240 h; for pest or weed control at 125 g/ha: 125 g ai/ha, Preemergence, visual injury rating after approximately 10 d, read-out: Ryegrass, Italian plant response rating (0 to 100 scale, 0 is no effect, 100 is complete control); for pest or weed control at 500 g/ha: 500 g ai/ha, preemergence, visual injury rating about 10 d after treatment, 0 to 100 scale (0 no effect, 100 complete control), read-out: Ryegrass, Italian plant response rating
How it was run: (§1)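 Preemergence directed soil spray on seeded pots, or postemergence application to plants 2–10 cm, one- to two-leaf. Solvent mixture non-phytotoxic, with surfactant. Scored ~10 d later, visually, 0–100 vs untreated.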

Kochia (Kochia scoparia) [3] = experiment: Test A preemergence; details: Bassia scoparia, pre-emergence, 240 h; for pest or weed control at 125 g/ha: 125 g ai/ha, Preemergence, visual injury rating after approximately 10 d, read-out: Kochia plant response rating (0 to 100 scale, 0 is no effect, 100 is complete control); for pest or weed control at 500 g/ha: 500 g ai/ha, preemergence, visual injury rating about 10 d after treatment, 0 to 100 scale (0 no effect, 100 complete control), read-out: Kochia plant response rating
How it was run: as §1

[4] = system: giant foxtail (Setaria faberii); experiment: Test A preemergence; details: Setaria faberi, pre-emergence, 240 h; for pest or weed control at 125 g/ha: 125 g ai/ha, Preemergence, visual injury rating after approximately 10 d, read-out: Foxtail, Giant plant response rating (0 to 100 scale, 0 is no effect, 100 is complete control); for pest or weed control at 500 g/ha: 500 g ai/ha, preemergence, visual injury rating about 10 d after treatment, 0 to 100 scale (0 no effect, 100 complete control), read-out: Foxtail, Giant plant response rating
How it was run: as §1

[5] = system: barnyardgrass (Echinochloa crus-galli); experiment: Test A preemergence; details: Echinochloa crus-galli, pre-emergence, 240 h; for pest or weed control at 125 g/ha: 125 g ai/ha, Preemergence, visual injury rating after approximately 10 d, read-out: Barnyardgrass plant response rating (0 to 100 scale, 0 is no effect, 100 is complete control); for pest or weed control at 500 g/ha: 500 g ai/ha, preemergence, visual injury rating about 10 d after treatment, 0 to 100 scale (0 no effect, 100 complete control), read-out: Barnyardgrass plant response rating
How it was run: as §1

[6] = system: ragweed (common ragweed, Ambrosia elatior); experiment: Test A preemergence; details: Ambrosia artemisiifolia, pre-emergence, 240 h; for pest or weed control at 125 g/ha: 125 g ai/ha, Preemergence, visual injury rating after approximately 10 d, read-out: Ragweed plant response rating (0 to 100 scale, 0 is no effect, 100 is complete control); for pest or weed control at 500 g/ha: 500 g ai/ha, preemergence, visual injury rating about 10 d after treatment, 0 to 100 scale (0 no effect, 100 complete control), read-out: Ragweed plant response rating
How it was run: as §1

[7] = system: pigweed (Amaranthus retroflexus); experiment: Test A postemergence; details: Amaranthus retroflexus, post-emergence, 240 h, 125 g ai/ha, Postemergence; visual injury after approximately 10 d; 0 to 100 scale where 0 is no effect and 100 is complete control; read-out: Plant response rating, Pigweed
How it was run: as §1

corn (Zea mays) = experiment: Test A postemergence; details: Zea mays, post-emergence, 240 h, 125 g ai/ha, Postemergence; visual injury after approximately 10 d; 0 to 100 scale where 0 is no effect and 100 is complete control
How it was run: as §1

[8] = system: ryegrass, Italian (Italian ryegrass, Lolium multiflorum); experiment: Test A postemergence; details: Lolium multiflorum, post-emergence, 240 h, 125 g ai/ha, Postemergence; visual injury after approximately 10 d; 0 to 100 scale where 0 is no effect and 100 is complete control; read-out: Plant response rating, Ryegrass, Italian
How it was run: as §1

[9] = system: Galium (catchweed bedstraw, Galium aparine); experiment: Test A postemergence; details: Galium, post-emergence, 240 h, 125 g ai/ha, Postemergence; visual injury after approximately 10 d; 0 to 100 scale where 0 is no effect and 100 is complete control; read-out: Plant response rating, Galium
How it was run: as §1

[10] = system: blackgrass (Alopecurus myosuroides); experiment: Test A postemergence; details: Alopecurus myosuroides, post-emergence, 240 h, 125 g ai/ha, Postemergence; visual injury after approximately 10 d; 0 to 100 scale where 0 is no effect and 100 is complete control; read-out: Plant response rating, Blackgrass
How it was run: as §1

Kochia (Kochia scoparia) [11] = experiment: Test A postemergence; details: Bassia scoparia, post-emergence, 240 h, 125 g ai/ha, Postemergence; visual injury after approximately 10 d; 0 to 100 scale where 0 is no effect and 100 is complete control; read-out: Plant response rating, Kochia
How it was run: as §1

[12] = system: giant foxtail (Setaria faberii); experiment: Test A postemergence; details: Setaria faberi, post-emergence, 240 h, 125 g ai/ha, Postemergence; visual injury after approximately 10 d; 0 to 100 scale where 0 is no effect and 100 is complete control; read-out: Plant response rating, Foxtail, Giant
How it was run: as §1

[13] = system: wheat (Triticum aestivum); experiment: Test A postemergence; details: Triticum aestivum, post-emergence, 240 h, 125 g ai/ha, Postemergence; visual injury after approximately 10 d; 0 to 100 scale where 0 is no effect and 100 is complete control; read-out: Plant response rating, Wheat
How it was run: as §1

[14] = system: ragweed (common ragweed, Ambrosia elatior); experiment: Test A postemergence; details: Ambrosia artemisiifolia, post-emergence, 240 h, 125 g ai/ha, Postemergence; visual injury after approximately 10 d; 0 to 100 scale where 0 is no effect and 100 is complete control; read-out: Plant response rating, Ragweed
How it was run: as §1

rice (Oryra sativa) = experiment: Test B flooded paddy test; details: Oryza sativa, Flood, 250 g ai/ha; scale of 0 to 100 where 0 is no effect and 100 is complete control; read-out: Rice plant response rating
How it was run: (§2)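 Greenhouse paddy pots with 2-leaf stage plants received compound by direct addition to floodwater 3 cm deep, kept at that level. Scored visually at 13–15 d versus controls (0 no effect; 100 complete control).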

[15] = system: sedge, umbrella (small-flower umbrella sedge, Cyperus difformis); experiment: Test B flooded paddy test; details: Cyperus difformis, Flood, 250 g ai/ha; scale of 0 to 100 where 0 is no effect and 100 is complete control; read-out: Sedge, Umbrella plant response rating
How it was run: as §2

[16] = system: barnyardgrass (Echinochloa crus-galli); experiment: Test B flooded paddy test; details: Echinochloa crus-galli, Flood, 250 g ai/ha; scale of 0 to 100 where 0 is no effect and 100 is complete control; read-out: Barnyardgrass plant response rating
How it was run: as §2

[17] = system: ducksalad (Heteranthera limosa); experiment: Test B flooded paddy test; details: Heteranthera limosa, Flood, 250 g ai/ha; scale of 0 to 100 where 0 is no effect and 100 is complete control; read-out: Ducksalad plant response rating
How it was run: as §2

CN1C[C@H](c2cc(F)cc(Cl)c2)[C@@H](C(=O)Nc2cccc(F)c2F)C1=O [Compound 974]
pest or weed control at 125 g/ha [1]: 20% | pest or weed control at 500 g/ha [1]: 60% | pest or weed control at 125 g/ha [2]: 70% | pest or weed control at 500 g/ha [2]: 90% | pest or weed control at 125 g/ha (Kochia (Kochia scoparia) [3]): 90% | pest or weed control at 500 g/ha (Kochia (Kochia scoparia) [3]): 100% | pest or weed control at 125 g/ha [4]: 90% | pest or weed control at 500 g/ha [4]: 90% | pest or weed control at 125 g/ha [5]: 90% | pest or weed control at 500 g/ha [5]: 100% | pest or weed control at 125 g/ha [6]: 90% | pest or weed control at 500 g/ha [6]: 90% | pest or weed control at 125 g/ha [7]: 40% | Corn plant response rating (crop injury, 0 = no effect, 100 = complete kill) at 125 g/ha (corn (Zea mays)): 70% | pest or weed control at 125 g/ha [8]: 70% | pest or weed control at 125 g/ha [9]: 50% | pest or weed control at 125 g/ha [10]: 70% | pest or weed control at 125 g/ha (Kochia (Kochia scoparia) [11]): 70% | pest or weed control at 125 g/ha [12]: 90% | plant injury at 125 g/ha [13]: 70% | pest or weed control at 125 g/ha [14]: 20% | pest or weed control at 250 g/ha (rice (Oryra sativa)): 15% | pest or weed control at 250 g/ha [15]: 0% | pest or weed control at 250 g/ha [16]: 60% | pest or weed control at 250 g/ha [17]: 100%

CN1C[C@H](c2cc(F)cc(Cl)c2)[C@@H](C(=O)Nc2ccccc2F)C1=O [Compound 976]
pest or weed control at 125 g/ha [1]: 0% | pest or weed control at 500 g/ha [1]: 50% | pest or weed control at 125 g/ha [2]: 50% | pest or weed control at 500 g/ha [2]: 80% | pest or weed control at 125 g/ha (Kochia (Kochia scoparia) [3]): 70% | pest or weed control at 500 g/ha (Kochia (Kochia scoparia) [3]): 90% | pest or weed control at 125 g/ha [4]: 90% | pest or weed control at 500 g/ha [4]: 90% | pest or weed control at 125 g/ha [5]: 90% | pest or weed control at 500 g/ha [5]: 100% | pest or weed control at 500 g/ha [6]: 90% | pest or weed control at 125 g/ha [7]: 0% | Corn plant response rating (crop injury, 0 = no effect, 100 = complete kill) at 125 g/ha (corn (Zea mays)): 60% | pest or weed control at 125 g/ha [8]: 20% | pest or weed control at 125 g/ha [9]: 0% | pest or weed control at 125 g/ha [10]: 40% | pest or weed control at 125 g/ha (Kochia (Kochia scoparia) [11]): 30% | pest or weed control at 125 g/ha [12]: 90% | plant injury at 125 g/ha [13]: 40% | pest or weed control at 125 g/ha [14]: 0% | pest or weed control at 250 g/ha (rice (Oryra sativa)): 20% | pest or weed control at 250 g/ha [15]: 0% | pest or weed control at 250 g/ha [16]: 65% | pest or weed control at 250 g/ha [17]: 95%

COc1cc(OC)cc([C@H]2CN(C)C(=O)[C@@H]2C(=O)Nc2ccccc2F)c1 [Compound 980]
pest or weed control at 125 g/ha [1]: 0% | pest or weed control at 500 g/ha [1]: 0% | pest or weed control at 125 g/ha [2]: 20% | pest or weed control at 500 g/ha [2]: 30% | pest or weed control at 125 g/ha (Kochia (Kochia scoparia) [3]): 0% | pest or weed control at 500 g/ha (Kochia (Kochia scoparia) [3]): 90% | pest or weed control at 125 g/ha [4]: 90% | pest or weed control at 500 g/ha [4]: 100% | pest or weed control at 125 g/ha [5]: 90% | pest or weed control at 500 g/ha [5]: 100% | pest or weed control at 125 g/ha [6]: 0% | pest or weed control at 500 g/ha [6]: 20% | pest or weed control at 125 g/ha [7]: 0% | Corn plant response rating (crop injury, 0 = no effect, 100 = complete kill) at 125 g/ha (corn (Zea mays)): 0% | pest or weed control at 125 g/ha [8]: 0% | pest or weed control at 125 g/ha [9]: 0% | pest or weed control at 125 g/ha [10]: 0% | pest or weed control at 125 g/ha (Kochia (Kochia scoparia) [11]): 0% | pest or weed control at 125 g/ha [12]: 90% | plant injury at 125 g/ha [13]: 0% | pest or weed control at 125 g/ha [14]: 0% | pest or weed control at 250 g/ha (rice (Oryra sativa)): 30% | pest or weed control at 250 g/ha [15]: 0% | pest or weed control at 250 g/ha [16]: 60% | pest or weed control at 250 g/ha [17]: 0%
